pIC50: −log10 of the molar value.
Test system: 3T3 proliferation
Assay: IGF-1-induced DNA synthesis (3H-thymidine incorporation)
Type: cell-based
Details: Rattus norvegicus; activated overnight with 50 ng/mL IGF-1; read-out: inhibited 3T3 proliferation (IC50, thymidine incorporation)
Experimental: Human tumor cell lines or a rat fibroblast cell line are plated out in flat-well plates in complete medium and allowed to adhere overnight. The cells are then starved in medium containing 0.1% bovine serum albumin (BSA) overnight, pre-incubated for 1 h with or without dilutions of compound, then activated overnight with 50 ng/mL insulin-like growth factor (IGF-1). Proliferation is determined by the level of ^3H-thymidine incorporation into DNA. IC50's are determined by comparing the level of thymidine incorporation found in the presence of compound compared to controls.

SMILES | pIC50
COc1cc(Nc2nccc(Nc3cc(-c4ccccc4)on3)n2)ccc1N1CCOCC1 [Example 14, N^2-(3-Methoxy-4-morpholin-4-yl-phenyl)-N^4-(5-phenyl-isoxazol-3-yl)-pyrimidine-2,4-diamine] | > 6.82
COc1cc(C)c(Nc2nccc(Nc3cc(C45CC6CC(CC(C6)C4)C5)on3)n2)cc1OC [Example 18, N^2-(4,5-Dimethoxy-2-methylphenyl)-N^4-(5-adamantylisoxazol-3-yl)-2,4-pyrimidinediamine] | > 6.82
COc1cc(Nc2nccc(Nc3cc(C4CCCCC4)no3)n2)cc(OC)c1OC [Example 17, N^2-(3,4,5-Trimethoxyphenyl)-N^4-(3-cyclohexylisoxazol-5-yl)-2,4-pyrimidinediamine] | > 6.82
COc1cc(Nc2nccc(Nc3cc(-c4ccccc4)on3)n2)cc(OC)c1OC [Example 15, N^2-(3,4,5-Trimethoxyphenyl)-N^4-(5-phenylisoxazol-3-yl)-2,4-pyrimidinediamine] | > 6.82

Source: US7115617B2, “Amino-substituted pyrimidinyl derivatives and methods of use” (Amgen Inc., priority 2001, dated 2006)
